Assay results as given in patent US5384408A, “Substituted pyrazine and its salts, compositions containing them and their use in medicine” (priority 1993, dated 1995).
Entries after “also recorded” stand apart in the source; their conditions may differ. Like-named read-outs stand apart in the source and are kept apart here.

What was measured:
M1 (ganglion) = target: T1, M1 (ganglion) (Rattus norvegicus, UniProt P08482); assay: functional selectivity, ganglion M1 agonist activity (methods of J. Med. Chem. 1987, 30, 969-975); assay type: biochemical
T1 construct: as measured in the rat ganglion; from tissue; host or cells: rat ganglion
T1 sequence (P08482 1-460): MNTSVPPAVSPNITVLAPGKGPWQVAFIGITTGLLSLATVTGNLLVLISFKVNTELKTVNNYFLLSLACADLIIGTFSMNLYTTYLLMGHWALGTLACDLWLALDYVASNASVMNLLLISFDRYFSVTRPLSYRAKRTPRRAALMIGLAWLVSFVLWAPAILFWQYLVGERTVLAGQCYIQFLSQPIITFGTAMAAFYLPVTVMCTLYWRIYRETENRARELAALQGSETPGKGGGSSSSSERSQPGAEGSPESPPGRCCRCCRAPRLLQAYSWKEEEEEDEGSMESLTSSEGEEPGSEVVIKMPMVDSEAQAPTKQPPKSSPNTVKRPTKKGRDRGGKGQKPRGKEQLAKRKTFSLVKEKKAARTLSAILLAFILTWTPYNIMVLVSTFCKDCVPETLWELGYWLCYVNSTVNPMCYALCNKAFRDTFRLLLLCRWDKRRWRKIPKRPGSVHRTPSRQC
Excerpt: (§1) European Patent Application No. 89200147 (Publication No. 327155) discloses a class of pyrazines, pyridazines or pyrimidines, and salts and prodrugs thereof, substituted on one of the ring carbon atoms thereof with a non-aromatic azacyclic or azabicyclic ring system; and independently substituted on each of the other ring carbon atoms with a substituent of low lipophilicity or a hydrocarbon substituent, which compounds stimulate cholinergic transmission.
(§2) 1. By the methods disclosed in J. Med. Chem. (1987), 30, 969-975 was determined the functional selectivity of compound (I): […]

M2 (heart) = target: T2, M2 (heart) (Cavia porcellus, UniProt H0VRN8); assay: functional selectivity, heart M2 antagonist activity (methods of J. Med. Chem. 1987, 30, 969-975); assay type: biochemical, guinea pig
T2 construct: as measured in the guinea pig heart; from tissue; host or cells: guinea pig heart
T2 sequence (H0VRN8 1-466): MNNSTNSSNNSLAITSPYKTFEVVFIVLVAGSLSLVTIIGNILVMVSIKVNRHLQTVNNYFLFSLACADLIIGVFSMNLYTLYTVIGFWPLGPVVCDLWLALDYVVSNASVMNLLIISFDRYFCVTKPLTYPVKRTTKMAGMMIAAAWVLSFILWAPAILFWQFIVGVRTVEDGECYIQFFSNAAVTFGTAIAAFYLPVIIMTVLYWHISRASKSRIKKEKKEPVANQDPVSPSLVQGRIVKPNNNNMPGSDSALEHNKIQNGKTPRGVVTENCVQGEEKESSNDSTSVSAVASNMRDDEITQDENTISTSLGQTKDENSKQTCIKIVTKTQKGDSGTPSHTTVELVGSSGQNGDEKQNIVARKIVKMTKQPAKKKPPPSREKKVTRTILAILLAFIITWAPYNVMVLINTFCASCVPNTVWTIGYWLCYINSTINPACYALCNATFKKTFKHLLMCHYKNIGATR
Excerpt: as §1, §2

M3 (ileum) = target: T3, M3 (ileum) (Cavia porcellus, UniProt H0W1Z3); assay: functional selectivity, ileum M3 antagonist activity (methods of J. Med. Chem. 1987, 30, 969-975); assay type: biochemical, guinea pig
T3 construct: guinea pig heart and guinea pig ileum; from tissue; host or cells: guinea pig ileum
Excerpt: as §1, §2

M3 muscarinic receptor [1] = assay: M3 muscarinic activity, ileum preparation (method of Freedman et al.); assay type: biochemical, guinea pig; conditions: versus reference 6-Cl compound
M3 muscarinic receptor [2] = target: T4, M3 muscarinic receptor (Cavia porcellus, UniProt H0W1Z3); assay: as above; assay type: biochemical, guinea pig; conditions: for M3 receptor action (in words): ileum assay
T4 construct: involving ileum preparation; from tissue; host or cells: ileum (guinea pig by b7)

intraocular pressure = assay: Glaucoma method: intraocular pressure in African Green monkeys; assay type: in vivo
Procedure: Male or female African Green monkeys (2.0-4.5 kg) were fasted following their afternoon feeding on the day prior to the experiment. The monkeys were anaesthetised in their cages with approximately 10 mg/kg i.m. ketamine HCl (Vetalar or Ketaset). Once sedated, the animals were restrained in monkey chairs and brought to the laboratory. One drop of 0.5% proparacaine (Ophthetic) was instilled into each eye. After 30 seconds, intraocular pressure (IOP) determinations were taken in each eye (control or "0" time reading) using a Digilab Modular One Pneuma Tonometer. Both eyes were then flushed with saline. Vehicle or test agent (0.0005-2.0%) was administered (25 μl) into the cul-de-sac of both eyes and the IOP was determined at 0.5 and 1.0 hour and at hourly intervals thereafter for up to 5 hours and compared to the control IOP. For ocular instillation, 0.5% hydroxyethylcellulose (HEC) was employed as the vehicle. Supplemental doses of 10 mg or more/animal i.m. ketamine HCl were given 3-5 minutes prior to IOP determinations. Proparacaine HCl (0.5%) (one drop/eye) was also instilled immediately prior to IOP determinations. Following the final IOP determination, both eyes were flushed liberally with saline and a sterile ophthalmic ointment (Ilotycin, erythromycin, 5 mg/gm) was applied. […] Pupil diameter was measured under standard laboratory lighting conditions using a millimeter ruler. […]

M1 muscarinic receptor = target: T5, M1 muscarinic receptor (Rattus norvegicus, UniProt P08482); assay: M1 muscarinic activity (method of Newberry et al.); assay type: biochemical
T5 construct: as measured in the rat ganglion; from tissue
T5 sequence (P08482 1-460): T1 sequence (P08482 1-460)
Excerpt: as §1
The following two compounds: 3(R)-[2-(6-trifluoromethyl) pyrazinyl]-1-azabicyclo[2.2.2]octane (Compound 1), and 3(R)-[2-(6chloro)pyrazinyl]-1-azabicyclo[2.2.2]octane (Compound 2) were tested for muscarinic activity using the method of Newberry, et al. (Br. J. Pharmacol, 1987, pp. 817-876). The specific M1 muscarinic activities of Compound 1 and Compound 2 were determined and the results are as follows: […]

[3] = listed as 6-C1 reference compound

T4 sequence (H0W1Z3 1-590): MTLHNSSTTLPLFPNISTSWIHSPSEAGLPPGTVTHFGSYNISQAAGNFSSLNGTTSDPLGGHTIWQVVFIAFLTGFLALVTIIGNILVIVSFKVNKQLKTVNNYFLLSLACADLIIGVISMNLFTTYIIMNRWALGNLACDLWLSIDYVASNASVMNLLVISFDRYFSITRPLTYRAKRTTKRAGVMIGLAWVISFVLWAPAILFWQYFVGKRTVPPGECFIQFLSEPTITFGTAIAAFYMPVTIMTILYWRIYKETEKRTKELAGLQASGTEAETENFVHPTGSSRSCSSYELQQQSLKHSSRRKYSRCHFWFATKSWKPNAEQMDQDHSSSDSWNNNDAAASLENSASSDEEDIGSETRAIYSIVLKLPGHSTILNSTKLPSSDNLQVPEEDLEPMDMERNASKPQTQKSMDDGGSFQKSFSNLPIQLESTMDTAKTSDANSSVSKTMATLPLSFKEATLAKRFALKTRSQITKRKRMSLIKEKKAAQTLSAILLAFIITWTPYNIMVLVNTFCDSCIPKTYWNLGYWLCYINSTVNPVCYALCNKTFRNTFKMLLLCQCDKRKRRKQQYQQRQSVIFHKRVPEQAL
T3 sequence (H0W1Z3 1-590): as above

Compound: FC(F)(F)c1cncc(C2CN3CCC2CC3)n1 (racemic) [(±) racemate, (±)-3-[2-(6-Trifluoromethylpyrazin)yl]-1-azabicyclo[2.2.2]octane]
- EC50 (M1 (ganglion)): 500 nM
- Kb (M2 (heart)): 25.1 nM
- Kb (M3 (ileum)): 79.4 nM

Compound: FC(F)(F)c1cncc([C@@H]2CN3CCC2CC3)n1 [(-) base isomer]
- Ganglion M1 (EC50) (M1 (ganglion)): no agonist effect
- Kb (M2 (heart); heart, antagonist, read-out: Heart M2 (pA2) (converted)): 100 nM
- Kb (M3 (ileum); ileum, antagonist, read-out: Ileum M3 (pA2) (converted)): 63.1 nM

Compound: FC(F)(F)c1cncc([C@H]2CN3CCC2CC3)n1 [(I): (+) base isomer, (R)-(+)-3-[2-(6-Trifluoromethylpyrazin)yl]-1-azabicyclo[2.2.2]octane]
- selectivity of action, M1 over M3 (in words) (M3 muscarinic receptor [1]): significantly greater selectivity of action
- Kb (M3 muscarinic receptor [2]): 15.8 nM
- M3 receptor action (in words) (M3 muscarinic receptor [2]; listed as 6-CF3 compound): not an agonist at the M3 receptor; also recorded: not an agonist of M3 receptors
- M3 receptor action (in words) (M3 muscarinic receptor [2]; listed as Compound 1): acts as antagonist on M3 receptors
- EC50 (M1 (ganglion)): 200 nM
- Kb (M2 (heart)): 15.8 nM
- Change in IOP (maximum mm Hg change in intraocular pressure) (intraocular pressure; 0.05%, 25 μl into cul-de-sac of both eyes, up to 5 hours): -3.5 mm Hg
- intraocular pressure lowering (in words) (intraocular pressure; glaucoma test): positive lowering of intraocular pressure
- Kb (M3 (ileum)): 15.8 nM
- EC50 (M1 muscarinic receptor): 200 nM
- M1 muscarinic activity (in words) (M1 muscarinic receptor; listed as 6-CF3 compound): retains M 1 muscarinic agonist activity comparable to that of the reference 6-C1 compound
- M1 muscarinic activity (in words) (M1 muscarinic receptor; listed as Compound 1): possess M1 muscarinic activity

Compound: Clc1cncc([C@H]2CN3CCC2CC3)n1 [Compound 2, 3(R)-[2-(6chloro)pyrazinyl]-1-azabicyclo[2.2.2]octane, reference compound]
- EC50 (M3 muscarinic receptor [2]): 30 nM
- M3 receptor action (in words) (M3 muscarinic receptor [2]): M3 receptor agonist
- M3 receptor action (in words) (M3 muscarinic receptor [2]; [3]): agonist on M3 receptors
- M3 muscarinic activity pA2 (M3 muscarinic receptor [2]; ileum preparation, antagonist): no measurable pA2 data
- M1 muscarinic activity (in words) (M1 muscarinic receptor): possess M1 muscarinic activity
- M1 muscarinic activity (in words) (M1 muscarinic receptor; [3]): agonist on M1 receptors
